Measurements taken from US8017755B2, “RNA-based transcriptional regulators” (President and Fellows of Harvard College, priority 2003, dated 2011).

Tests used:
[1] = test system: HIS3 gene; assay: Survival on media lacking histidine in strain L40-ura3, which lacks the LexA-MS2 fusion protein; format: cell-based, S. cerevisiae
Source text: To test whether the evolved RNAs require the MS2 protein-mediated localization to the LexA promoter, we introduced the plasmids expressing two representative active clones (m26-11 and m26-15) into the yeast strain L40-ura3 which lacks the LexA-MS2 fusion protein but is otherwise identical to YBZ-1 (Bernstein, D. S., Buter, N., Stumpf, C., and Wickens, M. (2002). Analyzing mRNA-protein complexes using a yeast three-hybrid system. Methods 26, 123-141).
Media consisted of yeast nitrogen base (Sigma), 4% dextrose, and synthetic drop out supplements lacking histidine or histidine and uracil (Clontech). Yeast were cultured either in liquid medium or on agar plates at 30° C. S. cerevisiae strains YBZ-1 (MATa, ura3-52, leu2-3, 112, his3-200, trp1-1, ade2, LYS2::(LexA op)-HIS3, ura3::(LexA op)-LacZ, LexA-MS2-MS2 coat (N55K)) and L40-ura3 (MATa, ura3-52, leu2-3112, his3Δ200, trp1Δ1, ade2, LYS2::(LexA op)-HIS3, ura3::(LexA op)-LacZ) were a gift from Professor Marvin Wickens (Bernstein, D. S., Buter, N., Stumpf, C., and Wickens, M. (2002). Analyzing mRNA-protein complexes using a yeast three-hybrid system. Methods 26, 123-141).

[2] = target: TMR-binding aptamer; conditions: cited from earlier work
[3] = test system: yeast; conditions: cited from earlier work
[4] = test system: S. cerevisiae cell wall; conditions: cited from earlier work
[5] = test system: S. cerevisiae; assay: Growth of yeast cultures in varying TMR concentrations; conditions: 10 μM TMR
[6] = Gal4-VP16 fusions versus intact Gal4; cited from earlier work

In the case of “m26-15: evolved N40-26 variant SEQ ID NO: 28 CGCGGACCAAUGGU-CCCCCAAGUGGAUGCCUAAGCCUCUU (DNA CGCGGACCAAUGGUCCCCCAAGUGGAUGCCUAAGCCUCUU; listed as RNA, chemistry not given here)”, the “survival on media lacking histidine without LexA-MS2 fusion protein” value [1] is reported as “unable to survive”.

For `CN(C)c1ccc2c(-c3ccc(CCl)cc3)c3ccc(=[N+](C)C)cc-3oc2c1` [TMR, tetramethylrosamine], the Kd [2] is given as 40 nM, the “concentration non-toxic to yeast” value [3] is given as “up to 1 μM” and the “crossing of the S. cerevisiae cell wall” value [4] is given as “cross the S. cerevisiae cell wall”. The “growth inhibition of yeast” value [5] was “Slight growth inhibition”.

For VP16, the “transcriptional activation, fold more potent than Gal4” value [6] is listed as 100 fold.
